How the values were obtained:
[1] = system: fixed human osteosarcoma U-2 OS cells; test: Labelling of fixed cells, wide-field fluorescence microscopy; format: cell-based; settings: 20 μM, 1 h exposure in PBS, FIG. 2
How it was run: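 U-2 OS cells fixed 24 or 48 h after seeding with 4% paraformaldehyde for 30 min, then labelled with AAQ agents at 20 μM (DRAQ5 20 μM as reference) in PBS at 37° C in the dark. Imaged without washing after 1 h by wide-field fluorescence, ×10 0.3 NA objective, for red signal and cellular location.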

MCF7 = test: MTT cellular viability (growth inhibition) assay, MCF7; format: cell-based; settings: Homo sapiens, 0.25-100 μM, 72 h, Table 3
How it was run: (§1)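 Cells seeded at 1×10^4 cells/mL in R10, allowed to adhere overnight at 37 °C, 5% CO2. Compounds tested at 0.25–100 μM for 72 h; MTT read-out gave growth-inhibition IC50.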

A549 live cells = test: Loading of A549 live cells, wide-field fluorescence microscopy; format: cell-based, human; settings: 20 μM, 30 min incubation, FIG. 3
How it was run: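 Live A549 cells incubated 30 min at 37° C. in the dark with compound at 20 μM (DRAQ5 at 20 μM as reference), imaged unwashed. Uptake and localisation of red fluorescence assessed by low-resolution wide-field fluorescence microscopy, ×10 0.3 NA objective, 30 ms exposure.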

A549 cells = test: Constant exposure to probes, time-lapse and flow cytometry after 72 h; format: cell-based, human; settings: within 24 hours
Method: Timelapse imaging, in accordance with Errington R J et al, Time-lapse microscopy approaches to track cell cycle and lineage progression at the single-cell level, Curr Protoc Cytom. 2013 April; Chapter 12: Unit 12.4, was carried out in relation to cells with exposure to probe compounds.
In this regard, A549 cells were seeded in a 24 well coverslip bottomed-plate, cultured overnight in McCoys media for 24 or 48 hours. The plates were placed onto an inverted automated microscope, with the capacity for acquiring an image sequence of different wells (therefore exposure to different agent labelling). An Axiovert 100 microscope (Carl Zeiss, Welwyn Garden City, UK) was fitted with an incubator for 37° C./5% CO2 maintenance (Solent Scientific, Portsmouth, UK), and an ORCA-ER CCD camera (Hamamatsu, Reading, UK). Illumination was controlled by a shutter in front of the transmission lamp, and an x, y positioning stage with separate z-focus (Prior Scientific, Cambridge, UK) controlled multi-field acquisition. Image capture was controlled using Metamorph software.
Cells were exposed to a constant dose (0-5 μM) or a pulsed dose of 0 or 20 μM agent for 15 minutes followed by washout with warmed full media. […]
A549 cell lines were monitored using time-lapse collection and lineage progression, in constant exposure to compounds of the invention. The effects on cells were also determined. […]

A549 = test: MTT cellular viability (growth inhibition) assay, A549; format: cell-based; settings: Homo sapiens, 0.25-100 μM, 72 h, Table 3
How it was run: as §1

With `COC(CNC(=O)CCNc1ccc(NCCN(C)C)c2c1C(=O)c1ccccc1C2=O)OC` [BST-109, N-(2,2-Dimethoxyethyl)-3-(4-(2-(dimethylamino)ethylamino)-9,10-dioxo-9,10-dihydroanthracen-1-ylamino)propanamide] the “staining pattern in fixed cells” value [1] was “heterogeneity in cytoplasmic staining and positive spots in the nuclei”, the IC50 (MCF7) was 15.7 µM and the “fluorescence brightness / background in live cells” value (A549 live cells) was “very bright cellular fluorescence”. The “localisation of probe during constant exposure” value (A549 cells) was “predominantly in a membrane compartment of the cytoplasm” and the IC50 (A549) was 22.5 µM.
With `COC(CC(=O)NCCNc1ccc(NCCN(C)C)c2c1C(=O)c1ccccc1C2=O)OC` [BST-110, N-(2-(4-(2-(dimethylamino)ethylamino)-9,10-dioxo-9,10-dihydroanthracen-1-ylamino)ethyl)-3,3-dimethoxypropanamide] the “fluorescence brightness / background in fixed cells” value [1] was “very high background fluorescence”, the “staining pattern in fixed cells” value [1] was “cytoplasmic staining and heterogeneity on labelling of mitotic figures” and the IC50 (MCF7) was 19.5 µM. The “fluorescence brightness / background in live cells” value (A549 live cells) was “very bright cellular fluorescence”, the “localisation of probe during constant exposure” value (A549 cells) was “predominantly in a membrane compartment of the cytoplasm” and the IC50 (A549) was 22.3 µM.

— patent publication US11447638B2, “Acetalanthraquinone derivatives useful for cellular staining” (BIOSTATUS LIMITED, priority 2016, dated 2022)
